# Measurements from patent publication US20250042879A1, “HETEROCYCLIC SUBSTITUTED 1,3,4-THIADIAZOLE AND PYRIDAZINE COMPOUNDS AND METHODS OF USING THE SAME” (Rgenta Therapeutics, Inc., priority 2021, published 2025).
# Structures can show the parent of a compound that is named as a salt.
# System: HTT
# Assay: Mini-gene reporter assay-HTT (firefly luciferase, exon inclusion)
# Format: cell-based
# Details: HTT Minigene, 5 μM; read-out: % Efficacy at 5 μM
# Source text: Mini-gene reporter constructs for each target site were constructed by first PCR amplifying the region-of-interest including the sequence of the alternatively skipped, sequences of the immediate upstream and downstream introns, and sequences of the immediate upstream and downstream exons. Then the 3′end of the amplified sequence was ligated to a firefly luciferase reporter gene and cloned into the pcDNA3.1 vector backbone. The final reporter construct was transiently transfected into HEK293 cells using Lipofectamine 3000 transfection reagents. Compounds that can induce the inclusion of the skipped exon in the reporter construct would increase the reporter firefly luciferase activity.
# Test compounds were diluted in duplicates and dispensed into an assay plate. Transient mini-gene reporter cell line stock was resuspended and dispensed into the assay plate. Assay plates were then centrifuged and incubated. A luciferase reagent (e.g. ONE-Glo firefly luciferase reagent from Promega®) was added to the assay plate and the luminescence (RLU) signals recorded. EC50 values were determined by curve fitting in Levenberg-Marquardt algorithm.
row,Structure (SMILES),Emax at 5 µM
1,COCC(C)N1CC(c2ccc(-c3ccc(-c4cc(OC)c5nn(C)cc5c4)cc3O)nn2)C1 (centres unmarked) [Compound 143],> 750%
2,COc1cc(-c2ccc(-c3ccc(C4CN(Cc5cccnc5C)C4)nn3)c(O)c2)cc2cn(C)nc12 [Compound 150],25 to 75%
3,COc1cc(-c2ccc(-c3ccc(C4CN(CC5C6CCCCC65)C4)nn3)c(O)c2)cc2cn(C)nc12 (centres unmarked) [Compound 190],25 to 75%
4,COc1cc(-c2ccc(-c3ccc(C4CN(C5CC(OC)C5)C4)nn3)c(O)c2)cc2cn(C)nc12 (centres unmarked) [Compound 160],25 to 75%
5,COc1cc(-c2ccc(-c3ccc(C4CN(C5CC(C)OC5C)C4)nn3)c(O)c2)cc2cn(C)nc12 (centres unmarked) [Compound 177],25 to 75%
6,COc1cc(-c2ccc(-c3ccc(C4CN(CCC5CCOCC5)C4)nn3)c(O)c2)cc2cn(C)nc12 [Compound 168],> 750%
7,COc1cc(-c2ccc(-c3ccc(C4CN(Cc5ccn(C(C)C)n5)C4)nn3)c(O)c2)cc2cn(C)nc12 [Compound 189],< 25%
8,Cc1cn2cc(-c3ccc(-c4ccc(C5CN(C(C)C6CCCCO6)C5)nn4)c(O)c3)cc(F)c2n1 (centres unmarked) [Compound 122],25 to 75%
9,Cc1cn2cc(-c3ccc(-c4ccc(C5CN(C6COC(C)C6)C5)nn4)c(O)c3)cc(F)c2n1 (centres unmarked) [Compound 119],25 to 75%
10,Cc1cn2cc(-c3ccc(-c4ccc(C5CN(Cc6ccn(C)c6)C5)nn4)c(O)c3)cc(F)c2n1 [Compound 94],25 to 75%
11,CCn1cnc(CN2CC(c3ccc(-c4ccc(-c5cc(F)c6nc(C)cn6c5)cc4O)nn3)C2)c1 [Compound 125],25 to 75%
12,Cc1cn2cc(-c3ccc(-c4ccc(C5CN(Cc6c(C)n[nH]c6C)C5)nn4)c(O)c3)cc(F)c2n1 [Compound 74],25 to 75%
13,Cc1cn2cc(-c3ccc(-c4ccc(C5CN(Cc6ccc[nH]c6=O)C5)nn4)c(O)c3)cc(F)c2n1 [Compound 121],25 to 75%
14,Cc1cn2cc(-c3ccc(-c4ccc(C5CN(CC6(F)CC6)C5)nn4)c(O)c3)cc(F)c2n1 [Compound 108],> 750%
15,Cc1cn2cc(-c3ccc(-c4ccc(C5CN(C6CCCOCC6)C5)nn4)c(O)c3)cc(F)c2n1 (centres unmarked) [Compound 99],> 750%
16,COc1cc(-c2ccc(-c3ccc(C4CN(Cc5ccc(CO)cc5)C4)nn3)c(O)c2)cc2cn(C)nc12 [Compound 181],25 to 75%
17,COc1cc(-c2ccc(-c3ccc(C4CN(C5CCOC6(CCC6)C5)C4)nn3)c(O)c2)cc2cn(C)nc12 (centres unmarked) [Compound 172],25 to 75%
18,Cc1cn2cc(-c3ccc(-c4ccc(C5CN(C6CCN(C)CC6)C5)nn4)c(O)c3)cc(F)c2n1 [Compound 75],25 to 75%
19,COc1nn(C)cc1CN1CC(c2ccc(-c3ccc(-c4cc(F)c5nc(C)cn5c4)cc3O)nn2)C1 [Compound 126],25 to 75%
20,CCCn1cc(CN2CC(c3ccc(-c4ccc(-c5cc(F)c6nc(C)cn6c5)cc4O)nn3)C2)cn1 [Compound 91],25 to 75%
21,Cc1cn2cc(-c3ccc(-c4ccc(C5CN(Cc6cnn(CCF)c6)C5)nn4)c(O)c3)cc(F)c2n1 [Compound 102],> 750%
22,COc1cc(-c2ccc(-c3ccc(C4CN(C5CCCC5)C4)nn3)c(O)c2)cc2cn(C)nc12 [Compound 137],> 750%
23,Cc1cn2cc(-c3ccc(-c4ccc(C5CN(CC6(C)COC6)C5)nn4)c(O)c3)cc(F)c2n1 [Compound 110],25 to 75%
24,COc1cc(-c2ccc(-c3ccc(C4CN(C5CCN(C6CC6)C5)C4)nn3)c(O)c2)cc2cn(C)nc12 (centres unmarked) [Compound 139],25 to 75%
25,COc1cc(-c2ccc(-c3ccc(C4CN(Cc5ccc(C)nn5)C4)nn3)c(O)c2)cc2cn(C)nc12 [Compound 180],25 to 75%
26,Cc1cn2cc(-c3ccc(-c4ccc(C5CN(C(C)CCn6cccn6)C5)nn4)c(O)c3)cc(F)c2n1 (centres unmarked) [Compound 107],25 to 75%

# Same assay, conditions: Homo sapiens; HTT mini-gene firefly luciferase reporter transiently transfected into HEK293 cells
row,EC50,Structure (SMILES)
1,≥ 1000 nM,"CCN1CC(c2ccc(-c3ccc(-c4cc(OC)c5nn(C)cc5n4)cc3O)nn2)C1 [Compound 66, 2-(6-(1-ethylazetidin-3-yl)pyridazin-3-yl)-5-(7-methoxy-2-methyl-2H-pyrazolo[4,3-b]pyridin-5-yl)phenol hydrochloride]"
2,< 50 nM,"Cc1cn2cc(-c3ccc(-c4ccc(C5CNC5)nn4)c(O)c3F)cc(F)c2n1 [Compound 10, 6-[6-(azetidin-3-yl)pyridazin-3-yl]-2-fluoro-3-{8-fluoro-2-methylimidazo[1,2-a]pyridin-6-yl}phenol]"
3,500 to 1000 nM,"Cc1cn2nc(-c3ccc(-c4ccc(C5CN(C6CCOCC6)C5)nn4)c(O)c3)ccc2n1 [Compound 63, 5-(2-methylimidazo[1,2-b]pyridazin-6-yl)-2-(6-(1-(tetrahydro-2H-pyran-4-yl)azetidin-3-yl)pyridazin-3-yl)phenol hydrochloride]"
4,500 to 1000 nM,"CCN1CC(c2ccc(-c3ccc(-c4ccc5nccn5n4)cc3O)nn2)C1 [Compound 47, 2-[6-(1-ethylazetidin-3-yl)pyridazin-3-yl]-5-{imidazo[1,2-b]pyridazin-6-yl}phenol]"
5,50 to 500 nM,"CCN1CC(c2ccc(-c3ccc(-c4cc(F)c5nc(C)cn5c4)cc3O)nn2)C1 [Compound 17, 2-[6-(1-ethylazetidin-3-yl)pyridazin-3-yl]-5-{8-fluoro-2-methylimidazo[1,2-a]pyridin-6-yl}phenol]"
6,≥ 1000 nM,"Cc1cc2cc(-c3ccc(-c4ccc(C5CN(C)C5)nn4)c(O)c3)ccn2n1 [Compound 21, 2-[6-(1-methylazetidin-3-yl)pyridazin-3-yl]-5-{2-methylpyrazolo[1,5-a]pyridin-5-yl}phenol]"
7,500 to 1000 nM,"Cn1cc2cc(-c3ccc(-c4ccc(C5CNC5)nn4)c(O)c3)ncc2n1 [Compound 44, 2-(6-(azetidin-3-yl)pyridazin-3-yl)-5-(2-methyl-2H-pyrazolo[3,4-c]pyridin-5-yl)phenol hydrochloride]"
8,50 to 500 nM,"Cc1cn2cc(-c3ccc(-c4ccc(C5CNC5)nn4)c(O)c3)nc(C)c2n1 [Compound 9, 2-[6-(azetidin-3-yl)pyridazin-3-yl]-5-{2,8-dimethylimidazo[1,2-a]pyrazin-6-yl}phenol]"
9,50 to 500 nM,"Cc1cn2cc(-c3ccc(-c4ccc(C5CN(C)C5)nn4)c(O)c3)ncc2n1 [Compound 39, 2-[6-(1-methylazetidin-3-yl)pyridazin-3-yl]-5-{2-methylimidazo[1,2-a]pyrazin-6-yl}phenol]"
10,≥ 1000 nM,"CCc1cc(-c2ccc(-c3ccc(C4CN(CC)C4)nn3)c(O)c2)nc2cn(C)nc12 [Compound 60, 5-{7-ethyl-2-methyl-2H-pyrazolo[4,3-b]pyridin-5-yl}-2-[6-(1-ethylazetidin-3-yl)pyridazin-3-yl]phenol]"
11,50 to 500 nM,"CCN1CC(c2ccc(-c3ccc(-c4ccc5nn(C)cc5c4)cc3O)nn2)C1 [Compound 24, 2-[6-(1-ethylazetidin-3-yl)pyridazin-3-yl]-5-(2-methyl-2H-indazol-5-yl)phenol]"
12,50 to 500 nM,"Cc1cn2cc(-c3ccc(-c4ccc(C5CNC5)nn4)c(O)c3)cc(F)c2n1 [Compound 1, 2-(6-(azetidin-3-yl)pyridazin-3-yl)-5-(8-fluoro-2-methylimidazo[1,2-a]pyridin-6-yl)phenol]"
13,500 to 1000 nM,"Cc1cn2cc(-c3ccc(-c4ccc(C5CN(C)C5)nn4)c(O)c3)ccc2n1 [Compound 14, 2-[6-(1-methylazetidin-3-yl)pyridazin-3-yl]-5-{2-methylimidazo[1,2-a]pyridin-6-yl}phenol]"
14,50 to 500 nM,"COc1nc(-c2ccc(-c3ccc(C4CN(C5CCOCC5)C4)nn3)c(O)c2)cc2cn(C)nc12 [Compound 58, 5-{7-methoxy-2-methyl-2H-pyrazolo[3,4-c]pyridin-5-yl}-2-{6-[1-(oxan-4-yl)azetidin-3-yl]pyridazin-3-yl}phenol]"
15,500 to 1000 nM,"Cn1cc2nc(-c3ccc(-c4ccc(C5CN(C6CCOCC6)C5)nn4)c(O)c3)ccc2n1 [Compound 51, 5-{2-methyl-2H-pyrazolo[4,3-b]pyridin-5-yl}-2-{6-[1-(oxan-4-yl)azetidin-3-yl]pyridazin-3-yl}phenol]"
16,≥ 1000 nM,"CCc1cc(-c2ccc(-c3ccc(C4CN(C5CCOCC5)C4)nn3)c(O)c2)nc2cn(C)nc12 [Compound 59, 5-{7-ethyl-2-methyl-2H-pyrazolo[4,3-b]pyridin-5-yl}-2-{6-[1-(oxan-4-yl)azetidin-3-yl]pyridazin-3-yl}phenol]"
17,500 to 1000 nM,"Cc1cn2cc(-c3ccc(-c4ccc(C5CN(C)C5)nn4)c(O)c3)cc(C)c2n1 [Compound 35, 5-{2,8-dimethylimidazo[1,2-a]pyridin-6-yl}-2-[6-(1-methylazetidin-3-yl)pyridazin-3-yl]phenol]"
18,500 to 1000 nM,"Cc1cn2cc(-c3cc(O)c(-c4ccc(C5CNC5)nn4)c(F)c3)cc(F)c2n1 [Compound 11, 2-[6-(azetidin-3-yl)pyridazin-3-yl]-3-fluoro-5-{8-fluoro-2-methylimidazo[1,2-a]pyridin-6-yl}phenol]"
19,500 to 1000 nM,"CCN1CC(c2ccc(-c3ccc(-c4cn5cc(C)nc5cn4)cc3O)nn2)C1 [Compound 43, 2-[6-(1-ethylazetidin-3-yl)pyridazin-3-yl]-5-{2-methylimidazo[1,2-a]pyrazin-6-yl}phenol]"
20,≥ 1000 nM,"Cc1cc2cc(-c3ccc(-c4ccc(C5CN(C6CCOCC6)C5)nn4)c(O)c3)ccn2n1 [Compound 192, 5-(2-methylpyrazolo[1,5-a]pyridin-5-yl)-2-(6-(1-(tetrahydro-2H-pyran-4-yl)azetidin-3-yl)pyridazin-3-yl)phenol 2,2,2-trifluoroacetate]"
21,500 to 1000 nM,"CCN1CC(c2ccc(-c3ccc(-c4cc(C)c5nn(C)cc5n4)cc3O)nn2)C1 [Compound 62, 5-{2,7-dimethyl-2H-pyrazolo[4,3-b]pyridin-5-yl}-2-[6-(1-ethylazetidin-3-yl)pyridazin-3-yl]phenol]"
